{
  "source": "paper PMC5107951",
  "about": "(Scientific Reports, 2016)",
  "assay_type_in_all_cases": "binding",
  "key": {"α7 nAChR [1]": {"biological_target": "T1, α7 nAChR (Homo sapiens, UniProt P36544)", "T1 sequence (P36544 23-502 limits assumed)": "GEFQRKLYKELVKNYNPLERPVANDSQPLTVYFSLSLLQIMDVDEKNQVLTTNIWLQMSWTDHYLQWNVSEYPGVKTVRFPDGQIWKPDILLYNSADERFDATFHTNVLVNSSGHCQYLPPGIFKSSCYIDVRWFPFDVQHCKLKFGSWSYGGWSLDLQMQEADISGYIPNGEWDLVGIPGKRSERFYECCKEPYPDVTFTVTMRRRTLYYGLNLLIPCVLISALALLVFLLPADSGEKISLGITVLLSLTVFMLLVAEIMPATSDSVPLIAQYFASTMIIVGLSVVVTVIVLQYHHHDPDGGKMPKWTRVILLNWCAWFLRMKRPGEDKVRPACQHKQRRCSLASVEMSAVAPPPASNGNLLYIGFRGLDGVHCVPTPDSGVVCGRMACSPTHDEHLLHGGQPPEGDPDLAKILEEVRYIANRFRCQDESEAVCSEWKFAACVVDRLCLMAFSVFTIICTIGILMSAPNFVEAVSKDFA", "experiment": "cell-based"}, "α7 nAChR [2]": {"biological_target": "T1, α7 nAChR"}, "α7 nAChR [3]": {"biological_target": "T1, α7 nAChR", "remark": "listed apart in the source"}},
  "data": [
    {"substance": "α-cobratoxin", "values": [
      {"measurement": "Hill coefficient, “replaceable” binding at the orthosteric site", "setting": "α7 nAChR [1]", "result": "1.0 ± 0.3"},
      {"measurement": "radioligand [125I]-PnIA[R9, L10] not displaced", "setting": "α7 nAChR [1]", "result": "≈ 25%"},
      {"measurement": "IC50", "setting": "α7 nAChR [1]; read-out: IC50 of [125I]-PnIA[R9, L10] binding inhibition, “replaceable” binding at the orthosteric site", "result": "11 ± 3", "unit": "nM"},
      {"measurement": "inhibition of [125I]-PnIA[R5, R9, L10, R14] binding (in words)", "setting": "α7 nAChR [2]", "result": "failed to achieve a 50% inhibition"},
      {"measurement": "removal of [125I]-PnIA[R9, L10] from α7 nAChR (in words)", "setting": "α7 nAChR [3]", "result": "could not completely remove the radioligand from the target even after a 2-hour incubation"}
    ]}
  ]
}
